From patent US20090022687A1, “Novel Pharmaceuticals That Use Anti-HLA Antibodies” (Chugai Seiyaku Kabushiki Kaisha, priority 2005, published 2009)

Tests used:
[1] = tested on: myeloma cell line RPMI 8226; test: Effects of signal transduction inhibitors on cell injury by 2D7-DB; conditions: 60 minutes of pretreatment, 2D7-DB 1 μg/mL
Method: This time, the present inventors further examined the antitumor mechanism of 2D7-DB. First, 60 minutes of pretreatment was performed using various signal transduction inhibitors, and their effects on cell injury of the myeloma cell line RPMI 8226 after 2D7-DB (1 μg/mL) addition were examined (FIG. 6A).

myeloma cell line ARH-77 = test: Actin staining, localization of 2D7-DB and actin; format: cell-based, human; conditions: ARH-77, 30 minutes of pretreatment with inhibitor 0,1 μM
Method: Furthermore, actin staining of the cells was performed to examine the localization of 2D7-DB (green) and actin (red) (FIG. 6B). […] On the other hand, actin aggregation due to 2D7-DB was not observed in the bone marrow stromal cell line KM102 expressing HLA-A. Thus, actin aggregation effect and cytotoxic activity by 2D7-DB were considered specific to myeloma cells and lymphoid cells, and while 2D7-DB is useful for myeloma and autoimmune diseases, it was considered to have little effect on normal tissues.

[2] = tested on: HLA-A expression in IM-9 cells; test: Effects of IFNs on HLA-A expression (flow cytometry using 2D7); format: cell-based, human; conditions: IFN 100 U/mL for 48 hours
Method: IM-9 cells were treated with IFN-α (100 U/mL) or IFN-γ (100 U/mL) for 48 hours. Cell surface expression of HLA-A was analyzed by flow cytometry using 2D7. The staining properties of IFN-treated cells are shown by tick lines, and those of untreated cells are shown by solid lines. Negative control staining properties are shown by dotted lines. (B) A graph indicating the enhancement of 2D7-DB-mediated cytotoxicity by IFN is shown. IM-9 cells were treated with IFN-α (100 U/mL) or IFN-γ (100 U/mL) for 48 hours, and then cultured with 2D7-DB (0.1 or 1 μg/mL) for 24 hours. Cell viabilities were determined by WST-8 assays.
Since cell surface expression of HLA class I is enhanced by IFN stimulation, effects of IFNs on HLA-A expression and 2D7-DB-mediated cytotoxicity were examined using IM-9 cells. After treating IM-9 cells with IFN-α (100 U/mL, OIF 2,500,000 IU, Otsuka Pharmaceutical) or IFN-γ (100 U/mL, Ogamma 100, Otsuka Pharmaceutical) for 48 hours, flow cytometry was performed. […]
Cell surface expression analysis of HLA class I by flow cytometry was performed as follows using FITC-labeled 2D7 mAb or FITC-labeled anti-HLA-ABC common region mAb (Chemicon, San Diego, Calif.). […] Next, the cells were washed twice with PBS, and analyzed using an EPICS XL flow cytometer (Beckman Coulter, Japan). […] HLA class I expression levels were evaluated as GeoMFI using the CellQuest software (BID Biosciences).

## C=C1[C@@H](C)[C@H]2[C@H](Cc3ccccc3)NC(=O)[C@]23[C@H](OC(C)=O)/C=C/[C@@](C)(O)C(=O)[C@@H](C)C/C=C/[C@H]3[C@@H]1O [cytochalasin D]
[1]; inhibitor 1 μM
  effect on cytotoxicity of 2D7-DB: almost completely suppressed

## C/C1=C/C(=O)O[C@@H]2C[C@@H](CC[C@H](C)/C=C\C=C\CC1)O[C@@](O)([C@@H]1CSC(=O)N1)C2 [latrunculin A]
[1]; inhibitor 0.1 μM
  effect on cytotoxicity of 2D7-DB: almost completely suppressed
Myeloma cell line ARH-77
  actin aggregation after 2D7-DB addition: aggregation was not observed

## COC[C@H]1OC(=O)c2coc3c2[C@@]1(C)C1=C(C3=O)[C@@H]2CCC(=O)[C@@]2(C)C[C@H]1OC(C)=O [Wortmannin]
[1]; inhibitor 10 μM
  effect on cytotoxicity of 2D7-DB: did not show effects

B1: IFN-α: interferon α, OIF 2,500,000 IU, Otsuka Pharmaceutical; amino acid sequence SEQ ID NO: 1 (protein, listed as Homo sapiens)
chain: MASPFALLMVLVVLSCKSSCSLGCDLPETHSLDNRRTLMLLAQMSRISPSSCLMDRHDFGFPQEEFDGNQFQKAPAISVLHELIQQIFNLFTTKDSSAAWDEDLLDKFCTELYQQLNDLEACVMQEERVGETPLMNADSILAVKKYFRRITLYLTEKKYSPCAWEVVRAEIMRSLSLSTNLQERLRRKE
[2]
  HLA-A expression: up-regulated

B2: IFN-γ: interferon γ, Ogamma 100, Otsuka Pharmaceutical; amino acid sequence SEQ ID NO: 3 (protein, listed as Homo sapiens)
chain: MKYTSYILAFQLCIVLGSLGCYCQDPYVKEAENLKKYFNAGHSDVADNGTLFLGILKNWKEESDRKIMQSQIVSFYFKLFKNFKDDQSIQKSVETIKEDMNVKFFNSNKKKRDDFEKLTNYSVTDLNVQRKAIHELIQVMAELSPAAKTGKRKRSQMLFRGRRASQ
[2]
  HLA-A expression: up-regulated
